Laboratory results published in patent US10550117B2, “2-azabicyclo[3.1.0]hexan-3-one derivatives and methods of use” (Genentech, Inc., priority 2016, dated 2020).

Key:
[1] = biological target: nuclear factor-kappa B (NF-kB)-inducing kinase (NIK) (Homo sapiens (Human), UniProt Q99558); assay: NIK enzyme inhibition assay (Transcreener ADP fluorescence polarization); type: biochemical; settings: for Ki: purified NIK 0.5 nM, 10 μM ATP, Morrison equation, read-out: NIK ADP-FP Ki; for NIK enzyme inhibition, potency in words relative to the other stereoisomers: stereoisomers separated by chiral SFC, qualitative
nuclear factor-kappa B (NF-kB)-inducing kinase (NIK), sequence (Q99558 whole entry): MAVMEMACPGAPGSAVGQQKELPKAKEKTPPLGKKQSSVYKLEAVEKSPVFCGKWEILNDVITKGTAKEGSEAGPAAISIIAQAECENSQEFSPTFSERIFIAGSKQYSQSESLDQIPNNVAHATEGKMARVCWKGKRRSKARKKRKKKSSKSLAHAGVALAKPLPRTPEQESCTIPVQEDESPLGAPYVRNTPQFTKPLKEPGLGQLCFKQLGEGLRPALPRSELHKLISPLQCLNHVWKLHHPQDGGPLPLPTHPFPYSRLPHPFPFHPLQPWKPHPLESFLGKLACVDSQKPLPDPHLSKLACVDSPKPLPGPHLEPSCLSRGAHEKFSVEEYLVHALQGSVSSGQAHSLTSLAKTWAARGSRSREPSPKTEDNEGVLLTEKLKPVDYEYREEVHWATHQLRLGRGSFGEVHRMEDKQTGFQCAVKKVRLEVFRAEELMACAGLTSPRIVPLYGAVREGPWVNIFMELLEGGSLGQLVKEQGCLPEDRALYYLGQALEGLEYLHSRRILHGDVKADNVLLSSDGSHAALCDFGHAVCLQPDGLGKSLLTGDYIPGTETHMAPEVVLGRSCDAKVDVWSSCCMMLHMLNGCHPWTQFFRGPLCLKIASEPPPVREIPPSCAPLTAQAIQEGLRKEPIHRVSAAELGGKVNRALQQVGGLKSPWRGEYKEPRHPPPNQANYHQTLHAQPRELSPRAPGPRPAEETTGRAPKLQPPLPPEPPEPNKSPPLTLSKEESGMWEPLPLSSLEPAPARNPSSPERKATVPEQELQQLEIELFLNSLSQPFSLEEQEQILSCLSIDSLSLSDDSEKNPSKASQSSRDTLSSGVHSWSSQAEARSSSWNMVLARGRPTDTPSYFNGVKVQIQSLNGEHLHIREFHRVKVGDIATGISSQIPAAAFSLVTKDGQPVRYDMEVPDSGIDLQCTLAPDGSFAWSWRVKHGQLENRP
Method: The ability of the nuclear factor-kappa B (NF-kB)-inducing kinase (NIK) to catalyze the hydrolysis of adenosine-5′-triphosphate (ATP) was monitored using the Transcreener ADP (adenosine-5′-diphosphate) assay (BellBrook Labs). […] Reactions were quenched by the addition of 20 mM 2,2′,2″,2′″-(ethane-1,2-diyldinitrilo)tetraacetic acid and 0.01% Brij 35. The tracer bound to the antibody was displaced by the ADP generated during the NIK reaction, which causes a decrease in fluorescence polarization that was measured by laser excitation at 633 nm with a Fluorescence Correlation Spectroscopy Plus reader (Evotec AG). Equilibrium dissociation constant (Ki) values for NIK inhibitors are calculated from plots of activity vs. inhibitor concentration using Morrison's quadratic equation that accounts for the potential of tight binding, and by also applying the conversion factor that accounted for competitive inhibition and the concentration of substrate used in the assay relative to its Michaelis constant (Km).

[2] = test system: p52 (non-classical NF-kB signaling) nuclear translocation in HUVEC; assay: p52 HUVEC nuclear translocation assay (anti-lymphotoxin beta receptor antibody stimulated); type: cell-based; settings: Homo sapiens, 300 ng/mL anti-lymphotoxin beta receptor antibody
Method: (§1) (2) A second set of cell assays used primary human umbilical vein cells (HUVEC) sourced from Lonza to define the selectivity of NIK inhibitors toward inhibition of classical vs. non-classical NF-kB signaling using high content cellular imaging. For the p52 (non-classical NF-kB signaling) nuclear translocation assay, HUVEC were treated with different concentrations of compounds (0.2% DMSO final) in EBM-2 medium (LONZA) containing 2% fetal bovine serum and then stimulated with 300 ng/mL of an anti-lymphotoxin beta receptor antibody (R&D Systems) for 4.5 hours. In the REL-A nuclear translocation assay, HUVEC were incubated with compounds (0.2% DMSO final) for 4 hours 50 minutes in EBM-2 medium containing 2% fetal bovine serum before stimulating them with 2 ng/mL tumor necrosis factor (TNF)-α (R&D Systems) for 10 minutes. Cells were fixed with 4% paraformaldehyde, permeabilized by adding 0.1% Triton X-100 in phosphate buffered saline, and then were incubated with either 2 μg/mL anti-p52 antibody (Millipore) or 400 ng/mL anti-REL-A (p65) antibody (Santa Cruz Biotechnology). Finally, the cells were incubated with an Alexa488-labeled secondary antibody (Invitrogen) and DRAQ5 DNA stain (Biostatus). Imaging was carried out using an Opera reader (Perkin Elmer) and data were analyzed with the aid of Acapella software (Perkin Elmer). The p52 or REL-A translocation into the nucleus was quantified by the ratio of the nuclear to cytoplasmic signal intensity.

Hepatocyte stability = type: in vitro ADME; settings: human hepatocytes; for stability in the human hepatocyte assay versus the corresponding pyrrolidinone comparator compound: qualitative comparison
Method: General. Metabolic stability assays in hepatocytes are conducted using cryopreserved pooled female CD-1 mouse, male Sprague-Dawley rat, male beagle dog, male cynomolgus monkey, and mixed male and female human hepatocytes (CellzDirect). Vials of hepatocytes are thawed rapidly in a water bath set at 37° C. and then are diluted with Dulbecco's modified Eagle's medium (DMEM), pH 7.4. Cells are isolated by centrifugation, pooled, and resuspended in DMEM at 1.0 million viable cells/ml. Membrane integrity of the cells is assessed by trypan blue exclusion. The test compound is dissolved in dimethyl sulfoxide at a final concentration of 10 mM. This test compound stock is diluted further to 2 μM in DMEM (125 μl) before the addition of an equal volume of the 10^6 cells/ml cell suspension. The test compound (final incubation concentration of 1.0 μM with 0.1% dimethyl sulfoxide) and cells (final concentration of 0.5×10^6 cells/ml) are incubated at 37° C. in a 95% air/5% CO2 atmosphere for 3 h. Aliquots (50 μl) are removed at 0, 1, 2, and 3 hours and added to termination mixtures (100 μl) containing acetonitrile and an internal standard. The samples are then centrifuged for 10 min at 2000 g. The supernatant (90 μl) is removed, combined with 180 μl of water, and analyzed by LC-MS/MS.
Metabolic stability of the test compounds were evaluated also in human hepatocytes, following protocols described in Hallifax, et al. Drug Metabol. Disposition, 2005, 33:1852-1858.

[3] = test system: REL-A (p65) nuclear translocation in HUVEC; assay: REL-A HUVEC nuclear translocation assay (TNF-α stimulated, high content imaging); type: cell-based; settings: Homo sapiens, 2 ng/mL TNF-α
Method: as §1

[4] = Liver microsome stability; type: in vitro ADME; settings: for HLM CL (human liver microsome clearance): human liver microsomes; for stability in human liver microsomes versus the corresponding pyrrolidinone comparator compound: qualitative comparison
Method: Metabolic stability assays in liver microsomes are conducted with pooled female CD-1 mouse, male Sprague-Dawley rat, male beagle dog, male cynomolgus monkey, and mixed male and female human liver microsomal incubations. The general assay conditions are as follows. Incubation mixtures consisted of liver microsomes (0.5 mg of microsomal protein/ml) and the test compound (1.0 μM) with or without NADPH (1.0 mM) in the potassium phosphate buffer (100 mM; pH 7.4) with a final incubation volume of 0.25 ml. Reactions are initiated by the addition of NADPH or buffer and shaken in a water bath open to the air at 37° C. At times 0, 20, 40, and 60 min, aliquots (50 μl) are removed and added to termination mixtures (100 μl) containing acetonitrile and an internal standard. The samples are then centrifuged for 10 min at 2000 g. The supernatant (90 μl) is removed, combined with 180 μl of water, and analyzed by LC-MS/MS.
Metabolic stability of the test compounds were evaluated in human liver microsomes following known protocols described in Halladay, et al. Drug Metabol. Lett. 2007, 1:67-72.

[5] = test system: p52 (NF-kB2) nuclear translocation in HeLa cells; assay: p52 HeLa nuclear translocation assay (anti-lymphotoxin beta receptor antibody stimulated); type: cell-based; settings: Homo sapiens, 100 ng/mL anti-lymphotoxin beta receptor antibody
Method: (§2) (3) A third set of cell assays are used to define the selectivity of NIK inhibitors toward inhibition of classical vs. non-classical NF-kB signaling and rely on quantification of the nuclear translocation of p52 (NF-kB2) and REL-A (p65) using high content cellular imaging. For the p52 (non-classical NF-kB signaling) nuclear translocation assay, HeLa cells are treated with different concentrations of compounds (0.2% DMSO final) in medium containing 10% fetal bovine serum and then stimulated with 100 ng/mL of an anti-lymphotoxin beta receptor antibody (R&D Systems) for 5 hours. In the REL-A nuclear translocation assay, HeLa cells are incubated with compounds (0.2% DMSO final) for 4.5 hours in medium containing 10% fetal bovine serum before stimulating them with 10 ng/mL tumor necrosis factor (TNF)-α (R&D Systems) for 30 minutes. Cells are fixed with 4% paraformaldehyde, permeabilized by adding 0.1% Triton X-100 in phosphate buffered saline, and then are incubated with either 2 μg/mL anti-p52 antibody (Millipore) or 400 ng/mL anti-REL-A (p65) antibody (Santa Cruz Biotechnology). Finally, the cells are incubated with an Alexa488-labeled secondary antibody (Invitrogen) and DRAQ5 DNA stain (Biostatus). Imaging is carried out using an Opera reader (Perkin Elmer) and data are analyzed with the aid of Acapella software (Perkin Elmer). The p52 or REL-A translocation into the nucleus is quantified by the ratio of the nuclear to cytoplasmic signal intensity. […] The test compounds have the corresponding inhibitory values (IC50) for NIK REL-A (p65) and p52 Translocation Assays as set forth in Table B2.

[6] = test system: REL-A (p65) nuclear translocation in HeLa cells; assay: REL-A HeLa nuclear translocation assay (TNF-α stimulated, high content imaging); type: cell-based; settings: Homo sapiens, 10 ng/mL TNF-α
Method: as §2

## CN1C(=O)[C@](O)(C#Cc2cccc(-n3nc(C(N)=O)c4cccnc43)c2)[C@H]2C[C@H]21 [Compound 1, 1-(3-(((1R,4R,5S)-4-hydroxy-2-methyl-3-oxo-2-azabicyclo[3.1.0]hexan-4-yl)ethynyl)phenyl)-1H-pyrazolo[3,4-b]pyridine-3-carboxamide]
[1]
  Ki: 0.88 nM
  NIK enzyme inhibition, potency in words relative to the other stereoisomers: most potent NIK enzyme inhibitor among the 4 stereoisomers
[2]
  IC50: 55 nM
Hepatocyte stability
  Hep CL (human hepatocyte clearance): 0.8 mL/min/kg
  stability in the human hepatocyte assay versus the corresponding pyrrolidinone comparator compound: better stability
[3]
  IC50: > 5000 nM
[4]
  HLM CL (human liver microsome clearance): 5.8 mL/min/kg
  stability in human liver microsomes versus the corresponding pyrrolidinone comparator compound: better stability

## CN1C(=O)[C@](O)(C#Cc2cccc(-n3nc(C(N)=O)c4cccnc43)c2)[C@@H]2C[C@@H]21 [Compound 2, 1-(3-(((1S,4R,5R)-4-hydroxy-2-methyl-3-oxo-2-azabicyclo[3.1.0]hexan-4-yl)ethynyl)phenyl)-1H-pyrazolo[3,4-b]pyridine-3-carboxamide]
[1]
  Ki: 4.3 nM
  NIK enzyme inhibition, potency in words relative to the other stereoisomers: second most potent NIK enzyme inhibitor among the 4 stereoisomers
[2]
  IC50: 280 nM
Hepatocyte stability
  Hep CL (human hepatocyte clearance): 13 mL/min/kg
[3]
  IC50: > 5000 nM
[4]
  HLM CL (human liver microsome clearance): 7.7 mL/min/kg

## CN1C(=O)[C@](O)(C#Cc2cccc(-c3nc(C(N)=O)n4ccccc34)c2)[C@H]2C[C@H]21 [Compound 3]
[2]
  IC50: 25 nM
Hepatocyte stability
  Hep CL (human hepatocyte clearance): 9.0 mL/min/kg
  stability in the human hepatocyte assay versus the corresponding pyrrolidinone comparator compound: better stability
[3]
  IC50: > 5000 nM
[4]
  HLM CL (human liver microsome clearance): 11 mL/min/kg
  stability in human liver microsomes versus the corresponding pyrrolidinone comparator compound: better stability

## CN1C(=O)[C@](O)(C#Cc2cccc(-c3nc(C(N)=O)c4ccccn34)c2)[C@H]2C[C@H]21 [Compound 5, 3-(3-(((1R,4R,5S)-4-hydroxy-2-methyl-3-oxo-2-azabicyclo[3.1.0]hexan-4-yl)ethynyl)phenyl)imidazo[1,5-a]pyridine-1-carboxamide]
[1]
  Ki: 4.7 nM
  NIK enzyme inhibition, potency in words relative to the other stereoisomers: most potent NIK enzyme inhibitor among the 4 stereoisomers
[2]
  IC50: 3000 nM
Hepatocyte stability
  Hep CL (human hepatocyte clearance): 1.6 mL/min/kg
  stability in the human hepatocyte assay versus the corresponding pyrrolidinone comparator compound: better stability
[3]
  IC50: > 5000 nM
[4]
  HLM CL (human liver microsome clearance): 3.5 mL/min/kg
  stability in human liver microsomes versus the corresponding pyrrolidinone comparator compound: better stability

## CN1CC[C@@](O)(C#Cc2cccc(-c3nc(C(N)=O)n4ccccc34)c2)C1=O [Compound C-3]
[5]
  IC50: 29.8 nM
[3]
  IC50: > 5000 nM
[6]
  IC50: > 20000 nM

## COc1ccn2c(C(N)=O)nc(-c3cccc(C#C[C@]4(O)CCN(C)C4=O)c3)c2c1 [Compound C-4, reference compound]
Hepatocyte stability
  Hep CL (human hepatocyte clearance): 9.9 mL/min/kg
[5]
  IC50: 6.6 nM
[3]
  IC50: > 5000 nM
[6]
  IC50: > 1000 nM
[4]
  HLM CL (human liver microsome clearance): 15 mL/min/kg
